Test results published in article PMC11992225, “Antibacterial compounds against non-growing and intracellular bacteria” (npj Antimicrobials and Resistance, 2025).
“And” between values parts separate entries of the source, which are not always exact repeats. Equal values may be shown once.

Assays:
[1] = test system: non-growing P. aeruginosa DSM1117; assay: Dose-dependent killing analysis (CFU spot-plating) of stationary-phase P. aeruginosa; assay type: cell-based, Pseudomonas aeruginosa; settings: for killing, average Δlog10(CFU/ml) / log10(CFU/ml) of treated nongrowing bacteria (single replicates): P. aeruginosa; for log10(CFU/ml) of treated nongrowing bacteria (single replicates): before treatment 8.887
Protocol: The cultures were grown and treated for 24 h in 1:4 CA-MHB (pH 7.4).
(§1) For survival analysis, bacteria were cultivated as described for the dose–response dilution-regrowth assay. Assays with UPEC were conducted at the CBCS screening facility using 96-well plates with a 200 μl sample volume, and compounds were dispensed using the Echo® (Labcyte) system. P. aeruginosa and S. aureus samples were treated according to the protocol used for the dilution-regrowth experiments. Treated samples were serially diluted 10-fold in PBS, and 10 μl drops were spot-plated onto rectangular LB agar plates using either a Beckman NXP robot (for UPEC) or an Integra VIAFLO96 electronic pipette (for P. aeruginosa and S. aureus). The LB agar plates were incubated overnight at 37 °C and scanned. Colonies were counted at the spots of the lowest dilution where individual colonies could be accurately distinguished. Each colony was manually marked on a separate image layer using the GNU Image Manipulation Program, and counted using NIST’s Integrated Colony Enumerator (NICE 1.4) software. The experiments were performed in three biological replicates.

non-growing UPEC CFT073 = assay: Dose-dependent killing analysis (CFU spot-plating) of stationary-phase UPEC; assay type: cell-based, Escherichia coli
Protocol: To differentiate between these scenarios, we used CFU counting by agar plating to assess the bactericidal effect on non-growing bacteria. […] Conversely, if no significant reduction in CFU is observed, the regrowth delay is due to PAE without killing. […] Fluoroquinolones are known to cause PAE after treatment of growing bacterial cultures.
as §1

SMILES: CC[C@H]1OC(=O)[C@@](C)(F)C(=O)[C@H](C)[C@@H](O[C@@H]2O[C@H](C)C[C@H](N(C)C)[C@H]2O)[C@](C)(OC)C[C@@H](C)C(=O)[C@H](C)[C@H]2N(CCCCn3cc(-c4cccc(N)c4)nn3)C(=O)O[C@]12C [Solithromycin]
- reduction of bacterial counts, stationary phase P. aeruginosa ([1]; at 0.5 µM, 24 h treatment): more than four
- reduction of bacterial counts, non-growing P. aeruginosa ([1]; at 2.5 µM, 1:4 CA-MHB pH 7.4, 24 h treatment): more than four
- killing of non-growing P. aeruginosa ([1]; at 2.5 µM, 24 h treatment): > 4 log10
- reduction of bacterial counts, non-growing P. aeruginosa ([1]; at 10 µM, 24 h treatment): more than four
- bactericidal activity against non-growing UPEC (CFU counting) (non-growing UPEC CFT073; 24 h treatment of stationary phase culture): did not kill

SMILES: N[C@@H]1[C@H]2CN(c3nc4c(cc3F)c(=O)c(C(=O)O)cn4-c3ccc(F)cc3F)C[C@@H]12 [Trovafloxacin]
- killing, average Δlog10(CFU/ml) ([1]; drug concentration 0.1): 0.236 log10(CFU/ml)
- log10(CFU/ml) of treated nongrowing bacteria (single replicates) ([1]; drug concentration 0.1): 8.699 log10(CFU/ml) and 8.954 log10(CFU/ml) and 8.301 log10(CFU/ml)
- killing, average Δlog10(CFU/ml) ([1]; drug concentration 0.5): 0.717 log10(CFU/ml)
- log10(CFU/ml) of treated nongrowing bacteria (single replicates) ([1]; drug concentration 0.5): 7.954 log10(CFU/ml) (2×) and 8.602 log10(CFU/ml)
- killing, average Δlog10(CFU/ml) ([1]; drug concentration 2.5): 1.077 log10(CFU/ml)
- log10(CFU/ml) of treated nongrowing bacteria (single replicates) ([1]; drug concentration 2.5): 7.778 log10(CFU/ml) and 7.954 log10(CFU/ml) and 7.699 log10(CFU/ml)
- killing, average Δlog10(CFU/ml) ([1]; drug concentration 10): 1.687 log10(CFU/ml)
- log10(CFU/ml) of treated nongrowing bacteria (single replicates) ([1]; drug concentration 10): 7.301 log10(CFU/ml) (2×) and 7.000 log10(CFU/ml)
- killing, average Δlog10(CFU/ml) (non-growing UPEC CFT073; E. coli in 1:4 CA-MHB (pH 7.4), drug concentration 0.25): 0.343 log10(CFU/ml)
- log10(CFU/ml) of treated nongrowing bacteria (single replicates) (non-growing UPEC CFT073; E. coli in 1:4 CA-MHB (pH 7.4), drug concentration 0.25, before treatment 8.977): 9.041 log10(CFU/ml) and 8.447 log10(CFU/ml) and 8.415 log10(CFU/ml)
- killing, average Δlog10(CFU/ml) (non-growing UPEC CFT073; E. coli in 1:4 CA-MHB (pH 7.4), drug concentration 0.5): 0.539 log10(CFU/ml)
- log10(CFU/ml) of treated nongrowing bacteria (single replicates) (non-growing UPEC CFT073; E. coli in 1:4 CA-MHB (pH 7.4), drug concentration 0.5, before treatment 8.977): 8.699 log10(CFU/ml) and 8.362 log10(CFU/ml) and 8.255 log10(CFU/ml)
- killing, average Δlog10(CFU/ml) (non-growing UPEC CFT073; E. coli in 1:4 CA-MHB (pH 7.4), drug concentration 1): 0.839 log10(CFU/ml)
- log10(CFU/ml) of treated nongrowing bacteria (single replicates) (non-growing UPEC CFT073; E. coli in 1:4 CA-MHB (pH 7.4), drug concentration 1, before treatment 8.977): 8.255 log10(CFU/ml) and 8.204 log10(CFU/ml) and 7.954 log10(CFU/ml)
- killing, average Δlog10(CFU/ml) (non-growing UPEC CFT073; E. coli in 1:4 CA-MHB (pH 7.4), drug concentration 2.5): 1.866 log10(CFU/ml)
- log10(CFU/ml) of treated nongrowing bacteria (single replicates) (non-growing UPEC CFT073; E. coli in 1:4 CA-MHB (pH 7.4), drug concentration 2.5, before treatment 8.977): 7.255 log10(CFU/ml) and 6.903 log10(CFU/ml) and 7.176 log10(CFU/ml)
- killing, average Δlog10(CFU/ml) (non-growing UPEC CFT073; E. coli in 1:4 CA-MHB (pH 7.4), drug concentration 5): 2.103 log10(CFU/ml)
- log10(CFU/ml) of treated nongrowing bacteria (single replicates) (non-growing UPEC CFT073; E. coli in 1:4 CA-MHB (pH 7.4), drug concentration 5, before treatment 8.977): 7.146 log10(CFU/ml) and 6.699 log10(CFU/ml) and 6.778 log10(CFU/ml)
- killing, average Δlog10(CFU/ml) (non-growing UPEC CFT073; E. coli in 1:4 CA-MHB (pH 7.4), drug concentration 10): 2.608 log10(CFU/ml)
- log10(CFU/ml) of treated nongrowing bacteria (single replicates) (non-growing UPEC CFT073; E. coli in 1:4 CA-MHB (pH 7.4), drug concentration 10, before treatment 8.977): 6.462 log10(CFU/ml) and 6.322 log10(CFU/ml) (2×)
- killing, average Δlog10(CFU/ml) (non-growing UPEC CFT073; E. coli in LPM (pH 5.5), drug concentration 0.25): 0.094 log10(CFU/ml)
- log10(CFU/ml) of treated nongrowing bacteria (single replicates) (non-growing UPEC CFT073; E. coli in LPM (pH 5.5), drug concentration 0.25, before treatment 7.350): 7.146 log10(CFU/ml) and 6.544 log10(CFU/ml) and 8.079 log10(CFU/ml)
- killing, average Δlog10(CFU/ml) (non-growing UPEC CFT073; E. coli in LPM (pH 5.5), drug concentration 0.5): 0.009 log10(CFU/ml)
- log10(CFU/ml) of treated nongrowing bacteria (single replicates) (non-growing UPEC CFT073; E. coli in LPM (pH 5.5), drug concentration 0.5, before treatment 7.350): 7.146 log10(CFU/ml) and 6.732 log10(CFU/ml) and 8.146 log10(CFU/ml)
- killing, average Δlog10(CFU/ml) (non-growing UPEC CFT073; E. coli in LPM (pH 5.5), drug concentration 1): 0.00468 log10(CFU/ml)
- log10(CFU/ml) of treated nongrowing bacteria (single replicates) (non-growing UPEC CFT073; E. coli in LPM (pH 5.5), drug concentration 1, before treatment 7.350): 7.255 log10(CFU/ml) and 6.740 log10(CFU/ml) and 8.041 log10(CFU/ml)
- killing, average Δlog10(CFU/ml) (non-growing UPEC CFT073; E. coli in LPM (pH 5.5), drug concentration 2.5): 0.225 log10(CFU/ml)
- log10(CFU/ml) of treated nongrowing bacteria (single replicates) (non-growing UPEC CFT073; E. coli in LPM (pH 5.5), drug concentration 2.5, before treatment 7.350): 7.230 log10(CFU/ml) and 6.447 log10(CFU/ml) and 7.699 log10(CFU/ml)
- killing, average Δlog10(CFU/ml) (non-growing UPEC CFT073; E. coli in LPM (pH 5.5), drug concentration 5): 0.336 log10(CFU/ml)
- log10(CFU/ml) of treated nongrowing bacteria (single replicates) (non-growing UPEC CFT073; E. coli in LPM (pH 5.5), drug concentration 5, before treatment 7.350): 6.699 log10(CFU/ml) and 6.763 log10(CFU/ml) and 7.580 log10(CFU/ml)
- killing, average Δlog10(CFU/ml) (non-growing UPEC CFT073; E. coli in LPM (pH 5.5), drug concentration 10): 0.963 log10(CFU/ml)
- log10(CFU/ml) of treated nongrowing bacteria (single replicates) (non-growing UPEC CFT073; E. coli in LPM (pH 5.5), drug concentration 10, before treatment 7.350): 6.146 log10(CFU/ml) and 6.415 log10(CFU/ml) and 6.602 log10(CFU/ml)
